Where a name gives a salt, the structure may show the parent alone. Values belong to the molecule of their own block, whether it stands above or below them.
System: IL-2 production
Assay: Inhibition of IL-2 production in PHA-activated Jurkat cells (ELISA)
Assay type: cell-based
Details: Homo sapiens, PHA 2.5 μg/mL
Experimental: Jurkat cells were placed in a 96 well plate (0.5 million cells per well in 1% FBS medium) then a test compound of this invention was added at different concentrations. After 10 minutes, the cells were activated with PHA (final concentration 2.5 μg/mL) and incubated for 20 hours at 37° C. under CO2. The final volume was 200 μL. Following incubation, the cells were centrifuged and the supernatants were collected and stored at −70° C. prior to assaying for IL-2 production. A commercial ELISA kit (IL-2 Eli-pair, Diaclone Research, Besancon, France) was used to detect production of IL-2, from which dose response curves were obtained. The IC50 value was calculated as the concentration at which 50% of maximum IL-2 production after stimulation was inhibited versus a non-stimulation control.

Structure (SMILES): O=C(Nc1cnc(-n2c(C(F)(F)F)nc3cc(O)ccc32)cn1)c1c(F)cccc1F [Compound 1, 2,6-Difluoro-N-[5-(5-hydroxy-2-trifluoromethyl-benzoimidazol-1-yl)-pyrazin-2-yl]-benzamide]
- IC50 (20 hours): 34 nM

Structure (SMILES): COc1ccc2c(c1)nc(C)n2-c1cnc(NC(=O)c2c(F)cccc2F)cn1 [Compound 3, 2,6-Difluoro-N-[5-(5-methoxy-2-methyl-benzoimidazol-1-yl)-pyrazin-2-yl]-benzamide]
- IC50 (20 hours): 102 nM

Structure (SMILES): O=C(Nc1cnc(-n2c(C(F)(F)F)nc3cc(O)ccc32)cn1)c1c(F)cccc1F [Compound 4, 2,6-Difluoro-N-[5-(5-hydroxy-2-trifluoromethyl-benzoimidazol-1-yl)-pyrazin-2-yl]-benzamide, sodium salt]
- IC50 (Jurkat, 20 h): 14 nM

Structure (SMILES): Nc1ccc2c(c1)nc(C(F)(F)F)n2-c1cnc(NC(=O)c2c(F)cccc2F)cn1 [Compound 6, N-[5-(5-Amino-2-trifluoromethyl-benzoimidazol-1-yl)-pyrazin-2-yl]-2,6-difluoro-benzamide]
- IC50 (20 hours): 97 nM

The next lines start with the values.

- IC50 (20 hours): 89 nM
Structure (SMILES): O=C(Nc1cnc(-n2c(C(F)(F)F)nc3cc([N+](=O)[O-])ccc32)cn1)c1c(F)cccc1F [Compound 2, 2,6-Difluoro-N-[5-(5-nitro-2-trifluoromethyl-benzoimidazol-1-yl)-pyrazin-2-yl]-benzamide]

- IC50 (20 hours): 29 nM
Structure (SMILES): CN(C)c1ccc2c(c1)nc(C(F)(F)F)n2-c1cnc(NC(=O)c2c(F)cccc2F)cn1 [Compound 5, N-[5-(5-Dimethylamino-2-trifluoromethyl-benzoimidazol-1-yl)-pyrazin-2-yl]-2,6-difluoro-benzamide]

- IC50 (20 hours): 39 nM
Structure (SMILES): O=C(Nc1cnc(-n2c(C(F)(F)F)nc3cc(-c4nnco4)ccc32)cn1)c1c(F)cccc1F [Compound 8, 2,6-Difluoro-N-[5-(5-[1,3,4]oxadiazol-2-yl-2-trifluoromethyl-benzoimidazol-1-yl)-pyrazin-2-yl]-benzamide]

- IC50 (20 hours): 84 nM
Structure (SMILES): Cc1nnc(-c2ccc3c(c2)nc(C(F)(F)F)n3-c2cnc(NC(=O)c3c(F)cccc3F)cn2)o1 [Compound 9, 2,6-Difluoro-N-{5-[5-(5-methyl-[1,3,4]oxadiazol-2-yl)-2-trifluoromethyl-benzoimidazol-1-yl]-pyrazin-2-yl}-benzamide]

From US8324219B2, “Substituted benzoimidazolyl-pyrazine compounds for inflammation and immune-related uses” (Synta Pharmaceuticals Corp., priority 2007, dated 2012)
